Data published in article PMC8037182, “Solvothermal Synthesis of Multiple Dihydropyrimidinones at a Time as Inhibitors of Eg5” (Molecules, 2021).

Tested on: Caco-2 cell line
Experiment: Cytotoxicity MTS assay, Caco-2 cell line
Type: cell-based
Conditions: for OD490 Mean / OD490 Well 1 / OD490 Well 2 / OD490 Well 3: Caco-2 cell line
Protocol: The positive compounds (IC50 < 100 μM) obtained from the primary Eg5 motor protein ATPase assay were tested for antiproliferative activity in vitro against Caco-2 cell line, Hela cell line, L929 cell line and T24 cell line by performing MTS assay. Cells were introduced into 96-well plates at a density of 1000 cells per well. After 24 h incubation, the cells were exposed with compounds at final concentrations ranging from 0.5 to 100 µM for 24 h. DMSO was used at a final concentration of 0.025% as blank control, monastrol was used as the positive control. Then 20 µL (CellTiter 96® AQueous One Solution Promega, Madison, WI, USA) reagent was added in each well. After 2 h at 37 °C in a 80% humidified, 5% CO2 atmosphere, the absorbance at 490 nm was recorded using a microplate reader (BIO-RAD iMark^TM). The results were obtained in three independent duplicate experiments. The primary data were shown in Supplementary Materials Tables S4–S7. The IC50 values for these compounds were calculated from a non-linear regression graph plotted between the percentage of cell viability and concentration with SPSS17.0 software.

CCOC(=O)c1[nH]c(C2NC(=O)NC(C)=C2C(=O)Nc2ccc(Cl)cc2)c(C(=O)OCC)c1C (stereo not shown) [D7]
OD490 Mean (0.5μM, first assay): 0.5690
OD490 Well 1 (0.5μM, first assay): 0.5534
OD490 Well 2 (0.5μM, first assay): 0.6352
OD490 Well 3 (0.5μM, first assay): 0.5185
OD490 Mean (0.5μM, second assay): 0.6172
OD490 Well 1 (0.5μM, second assay): 0.6374
OD490 Well 2 (0.5μM, second assay): 0.6303
OD490 Well 3 (0.5μM, second assay): 0.5839
OD490 Mean (0.5μM, third assay): 0.5837
OD490 Well 1 (0.5μM, third assay): 0.6634
OD490 Well 2 (0.5μM, third assay): 0.5231
OD490 Well 3 (0.5μM, third assay): 0.5647
OD490 Mean (1μM, first assay): 0.5311
OD490 Well 1 (1μM, first assay): 0.5419
OD490 Well 2 (1μM, first assay): 0.5318
OD490 Well 3 (1μM, first assay): 0.5197
OD490 Mean (1μM, second assay): 0.5625
OD490 Well 1 (1μM, second assay): 0.5454
OD490 Well 2 (1μM, second assay): 0.5593
OD490 Well 3 (1μM, second assay): 0.5827
OD490 Mean (1μM, third assay): 0.5540
OD490 Well 1 (1μM, third assay): 0.5665
OD490 Well 2 (1μM, third assay): 0.5741
OD490 Well 3 (1μM, third assay): 0.5214
OD490 Mean (10μM, first assay): 0.5404
OD490 Well 1 (10μM, first assay): 0.5519
OD490 Well 2 (10μM, first assay): 0.5485
OD490 Well 3 (10μM, first assay): 0.5208
OD490 Mean (10μM, second assay): 0.5334
OD490 Well 1 (10μM, second assay): 0.5402
OD490 Well 2 (10μM, second assay): 0.5543
OD490 Well 3 (10μM, second assay): 0.5057
OD490 Mean (10μM, third assay): 0.5421
OD490 Well 1 (10μM, third assay): 0.5552
OD490 Well 2 (10μM, third assay): 0.5101
OD490 Well 3 (10μM, third assay): 0.5610
OD490 Mean (25μM, first assay): 0.5145
OD490 Well 1 (25μM, first assay): 0.5041
OD490 Well 2 (25μM, first assay): 0.5114
OD490 Well 3 (25μM, first assay): 0.5279
OD490 Mean (25μM, second assay): 0.5117
OD490 Well 1 (25μM, second assay): 0.548
OD490 Well 2 (25μM, second assay): 0.4698
OD490 Well 3 (25μM, second assay): 0.5172
OD490 Mean (25μM, third assay): 0.5181
OD490 Well 1 (25μM, third assay): 0.5221
OD490 Well 2 (25μM, third assay): 0.5321
OD490 Well 3 (25μM, third assay): 0.5000
OD490 Mean (50μM, first assay): 0.4389
OD490 Well 1 (50μM, first assay): 0.5283
OD490 Well 2 (50μM, first assay): 0.4168
OD490 Well 3 (50μM, first assay): 0.3716
OD490 Mean (50μM, second assay): 0.4826
OD490 Well 1 (50μM, second assay): 0.5209
OD490 Well 2 (50μM, second assay): 0.4937
OD490 Well 3 (50μM, second assay): 0.4332
OD490 Mean (50μM, third assay): 0.4437
OD490 Well 1 (50μM, third assay): 0.5112
OD490 Well 2 (50μM, third assay): 0.4213
OD490 Well 3 (50μM, third assay): 0.3987
OD490 Mean (100μM, first assay): 0.3891
OD490 Well 1 (100μM, first assay): 0.3713
OD490 Well 2 (100μM, first assay): 0.3955
OD490 Well 3 (100μM, first assay): 0.4006
OD490 Mean (100μM, second assay): 0.4527
OD490 Well 1 (100μM, second assay): 0.4755
OD490 Well 2 (100μM, second assay): 0.4428
OD490 Well 3 (100μM, second assay): 0.4398
OD490 Mean (100μM, third assay): 0.3973
OD490 Well 1 (100μM, third assay): 0.4012
OD490 Well 2 (100μM, third assay): 0.4123
OD490 Well 3 (100μM, third assay): 0.3785
IC50 (MTS assay, 24 h exposure): 81.9 µM
